Test results taken from patent US12390437B2, “Itaconic acid derivatives and uses thereof intreating an inflammatory disease or a disease associated with an undesirable immune response” (Sitryx Therapeutics Limited, priority 2019, dated 2025).

tested on: IL-1β cytokine output from THP-1s; experiment: THP-1 AlphaLISA IL-1β cytokine assay; format: cell-based, human; settings: Homo sapiens, THP-1, PMA-differentiated THP-1 cells, LPS 24 hr then Nigericin 1 hour; read-out: IL-1β (IC50)
Method: Measuring Inhibitory Effects on IL-1β and IL-6 Cytokine Output from THP-1s
The cytokine inhibition profiles of compounds of formula (IW-1) were determined in a differentiated THP-1 cell assay. All assays were performed in RPMI-1640 growth medium (Gibco), supplemented with 10% fetal bovine serum (FBS; Gibco), 1% penicillin-streptomycin and 1% sodium pyruvate unless specified otherwise. The IL-1β and IL-6 cytokine inhibition assays were each run in a background of differentiated THP-1 cells as described below. All reagents described were from Sigma-Aldrich unless specified otherwise. Compounds were prepared as 10 mM DMSO stocks.
THP-1 cells were expanded as a suspension up to 80% confluence in appropriate growth medium. Cells were harvested, suspended, and treated with an appropriate concentration of phorbol 12-myristate 13-acetate (PMA) over a 72 hr period (37° C./5% CO2).
Following 72 hrs of THP-1 cell incubation, cellular medium was removed and replaced with fresh growth media containing 1% of FBS. Working concentrations of compounds were prepared separately in 10% FBS treated growth medium and pre-incubated with the cells for 30 minutes (37° C./5% CO2). Following the 30 minute compound pre-incubation, THP-1s were treated with an appropriate concentration of LPS and the THP-1s were subsequently incubated for a 24 hr period (37° C./5% CO2). An appropriate final concentration of Nigericin was then dispensed into the THP-1 plates and incubated for 1 hour (37° C./5% CO2) before THP-1 supernatants were harvested and collected in separate polypropylene 96-well holding plates.
Reagents from each of the IL-1β and IL-6 commercial kits (Perkin Elmer) were prepared and run according to the manufacturer's instructions. Subsequently, fluorescence signal detection in a microplate reader was measured (EnVision® Multilabel Reader, Perkin Elmer).
Percentage inhibition was calculated per cytokine by normalising the sample data to the high and low controls used within each plate (+/−LPS respectively). Percentage inhibition was then plotted against compound concentration and the 50% inhibitory concentration (IC50) was determined from the resultant concentration-response curve.

Structure (SMILES) | IC50
C=C(CC(=O)O[C@@H](C)c1ccc(C(F)(F)F)cc1)C(=O)OCC(=O)O [Example 201, (S)-2-((2-methylene-4-oxo-4-(1-(4-(trifluoromethyl)phenyl)ethoxy)butanoyl)oxy) acetic acid] | 24.6 µM
C=C(CC(=O)OC1CC2(CCCC2)C1)C(=O)OCC(=O)O [Example 152, 2-(2-methylene-4-oxo-4-(spiro[3.4]octan-2-yloxy)butanoyloxy)acetic acid] | 10.3 µM
C=C(CC(=O)OC1C(C)(C)CCCC1(C)C)C(=O)OCC(=O)O [Example 197] | 21.4 µM
C=C(CC(=O)OC(CCC)CCC)C(=O)OCC(=O)O [Example 148, 2-((4-(heptan-4-yloxy)-2-methylene-4-oxobutanoyl)oxy)acetic acid] | 29.6 µM
C=C(CC(=O)OC1CCCCC1)C(=O)O[C@@H](C(=O)O)c1ccccc1 [Example 127, (R)-2-((4-(cyclohexyloxy)-2-methylene-4-oxobutanoyl)oxy)-2-phenylacetic acid] | 44.9 µM
C=C(CC(=O)O[C@H](C)c1ccc(C(F)(F)F)cc1)C(=O)OCC(=O)O [Example 200, (R)-2-((2-methylene-4-oxo-4-(1-(4-(trifluoromethyl)phenyl)ethoxy)butanoyl)oxy) acetic acid] | 11.5 µM
C=C(CC(=O)OC1(C2CCCCC2)CCC1)C(=O)OCC(=O)O [Example 191, 2-((4-(1-cyclohexylcyclobutoxy)-2-methylene-4-oxobutanoyl)oxy)acetic acid] | 26.6 µM
C=C(CC(=O)OC(CCC)CCCC)C(=O)OCC(=O)O (centres unmarked) [Example 147, 2-(2-methylene-4-(octan-4-yloxy)-4-oxobutanoyloxy)acetic acid] | 13.4 µM
C=C(CC(=O)O[C@H](C)CCCCCC)C(=O)OC(C)Cc1nnn[nH]1 (stereo partly drawn) [Example 140, 1-(1-(1H-tetrazol-5-yl)propan-2-yl) 4-((R)-octan-2-yl) 2-methylenesuccinate] | 7.8 µM
C=C(CC(=O)OC1CCCCC1)C(=O)OC1CN(C(C)=O)C1 [Example 74, 1-(1-acetylazetidin-3-yl) 4-cyclohexyl 2-methylenesuccinate] | 4.2 µM
C=C(CC(=O)O[C@@H](C)CCCCCC)C(=O)OC(c1nn[nH]n1)C1CC1 (stereo partly drawn) [Example 166, 1-(cyclopropyl(1H-tetrazol-5-yl)methyl) 4-((S)-octan-2-yl) 2-methylenesuccinate] | 67.4 µM
C=C(CC(=O)OC(C)C1CCCCC1)C(=O)OCC(=O)O (centres unmarked) [Example 150, 2-((4-(1-cyclohexylethoxy)-2-methylene-4-oxobutanoyl)oxy)acetic acid] | 11.7 µM
C=C(CC(=O)OC1CCCCCCC1)C(=O)OCC(=O)N(C)CC(=O)O [Example 103, N-(2-((4-(cyclooctyloxy)-2-methylene-4-oxobutanoyl)oxy)acetyl)-N-methylglycine] | 55.5 µM
C=C(CC(=O)OC1CCCCC1(C)C)C(=O)OCC(=O)O (centres unmarked) [Example 155, 2-((4-((2,2-dimethylcyclohexyl)oxy)-2-methylene-4-oxobutanoyl)oxy)acetic acid] | 16.5 µM
C=C(CC(=O)OC1C2CCCC1CCC2)C(=O)OCC(=O)O (centres unmarked) [Example 181, 2-((4-(bicyclo[3.3.1]nonan-9-yloxy)-2-methylene-4-oxobutanoyl)oxy)acetic acid] | 32.8 µM
C=C(CC(=O)OCCCCCC)C(=O)OC1CCN(S(C)(=O)=O)CC1 [Example 76, 4-hexyl 1-(1-(methylsulfonyl)piperidin-4-yl) 2-methylenesuccinate] | 4.1 µM

Structure (SMILES) | IC50
C=C(CC(=O)OC1C(C)(C)CC1(C)C)C(=O)OCCC(=O)O [Example 207, 3-((2-methylene-4-oxo-4-(2,2,4,4-tetramethylcyclobutoxy)butanoyl)oxy) propanoic Acid] | 100 µM
C=C(CC(=O)OC1CCCCC1)C(=O)OC(C(=O)O)C(F)(F)F (centres unmarked) [Example 121, 2-((4-(cyclohexyloxy)-2-methylene-4-oxobutanoyl)oxy)-3,3,3-trifluoropropanoic acid] | 54.2 µM
C=C(CC(=O)O[C@@H](C)CCCCCC)C(=O)OC(C)Cc1nnn[nH]1 (stereo partly drawn) [Example 141, 1-(1-(1H-tetrazol-5-yl)propan-2-yl) 4-((S)-octan-2-yl) 2-methylenesuccinate] | 6.5 µM
C=C(CC(=O)OC1CCCCC1)C(=O)OCc1nnnn1C [Example 143, 4-cyclohexyl 1-((1-methyl-1H-tetrazol-5-yl)methyl) 2-methylenesuccinate] | 2 µM
C=C(CC(=O)OC(C)C1CCCCCC1)C(=O)OCC(=O)O (centres unmarked) [Example 151, 2-((4-(1-cycloheptylethoxy)-2-methylene-4-oxobutanoyl)oxy)acetic acid] | 10.3 µM
C=C(CC(=O)O[C@H](C)CCCCCC)C(=O)O[C@@H](CC(=O)O)C(F)(F)F [Example 205, (S)-4,4,4-trifluoro-3-((2-methylene-4-(((R)-octan-2-yl)oxy)-4-oxobutanoyl)oxy)butanoic acid] | 1.7 µM
C=C(CC(=O)OC1(C)CC2(CCCCC2)C1)C(=O)OCC(=O)O [Example 195, 2-((2-methylene-4-((2-methylspiro[3.5]nonan-2-yl)oxy)-4-oxobutanoyl)oxy)acetic acid] | 24.3 µM
C=C(CC(=O)O[C@H](C)CCCCCC)C(=O)O[C@H](CC(=O)O)C(F)(F)F [Example 188, (R)-4,4,4-trifluoro-3-((2-methylene-4-(((R)-octan-2-yl)oxy)-4-oxobutanoyl)oxy)butanoic Acid] | 3.5 µM
C=C(CC(=O)OC1CCCCCCC1)C(=O)OCC(C)(C)S(=O)(=O)c1cccc(Cl)c1 [Example 131, 1-(2-((3-chlorophenyl)sulfonyl)-2-methylpropyl) 4-cyclooctyl 2-methylenesuccinate] | 4.4 µM
C=C(CC(=O)OCCCCCCCC)C(=O)OC1CCOCC1 [Example 26, 4-octyl 1-(tetrahydro-2H-pyran-4-yl) 2-methylenesuccinate] | 16.1 µM
C=C(C(=O)OCC(=O)O)C(C)C(=O)OC1CCCCCCC1 (centres unmarked) [Example 168, 2-((4-(cyclooctyloxy)-3-methyl-2-methylene-4-oxobutanoyl)oxy)acetic acid] | 49.3 µM
C=C(CC(=O)OCCCCCC)C(=O)OCCN1CCCC1=O [Example 77, 4-hexyl 1-(2-(2-oxopyrrolidin-1-yl)ethyl) 2-methylenesuccinate] | 14.5 µM
C=C(CC(=O)O[C@@H](C)C1CCCCC1)C(=O)OCC(=O)O [Example 203, (S)-2-((4-(1-cyclohexylethoxy)-2-methylene-4-oxobutanoyl)oxy)acetic acid] | 22 µM
C=C(CC(=O)OC1CCC2(CCC2)CC1)C(=O)OCC(=O)O [Example 154, 2-(2-methylene-4-oxo-4-(spiro[3.5]nonan-7-yloxy)butanoyloxy)acetic acid] | 8.4 µM
C=C(CC(=O)O[C@H](C)CCCCCC)C(=O)O[C@H]1[C@@H]2CC[C@H]1CN(S(C)(=O)=O)C2 [Example 186, 1-((endo)-3-(methylsulfonyl)-3-azabicyclo[3.2.1]octan-8-yl) 4-((R)-octan-2-yl) 2-methylenesuccinate] | 3.5 µM

same assay, conditions: Homo sapiens, THP-1, read-out: IL-1β (IC50)

Structure (SMILES) | IC50
C=C(CC(=O)OC1CCCCC1)C(=O)OC/C=C/C(=O)O [Example 123, (E)-4-((4-(cyclohexyloxy)-2-methylene-4-oxobutanoyl)oxy)but-2-enoic acid] | 19.5 µM

same assay, conditions: Homo sapiens; PMA-differentiated THP-1 cells, LPS 24 hr then Nigericin 1 hour; read-out: IL-1β (IC50)

Structure (SMILES) | IC50
C=C(CC(=O)OC1CCCCC1)C(=O)OC1CCCCC1 [Example 167, dicyclohexyl 2-methylenesuccinate] | 29.1 µM
C=C(CC(=O)OC1CCCCC1)C(=O)OCCS(=O)(=O)CCC(=O)O [Example 124, 3-((2-((4-(cyclohexyloxy)-2-methylene-4-oxobutanoyl)oxy)ethyl)sulfonyl)propanoic acid] | 52.4 µM
C=C(C(=O)OCC(=O)O)C(OC)C(=O)OC1CCCCCCC1 (centres unmarked) [Example 171, 2-((4-(cyclooctyloxy)-3-methoxy-2-methylene-4-oxobutanoyl)oxy)acetic Acid] | 21.8 µM
C=C(CC(=O)OC1(C2CCCCC2)CC1)C(=O)OCC(=O)O [Example 202, 2-((4-(1-cyclohexylcyclopropoxy)-2-methylene-4-oxobutanoyl)oxy)acetic acid] | 36.7 µM
C=C(CC(=O)OC(C(C)(C)C)C(C)(C)C)C(=O)OCC(=O)O [Example 204, 2-((2-methylene-4-oxo-4-((2,2,4,4-tetramethylpentan-3-yl)oxy)butanoyl)oxy)acetic Acid] | 41.7 µM

same assay, conditions: PMA-differentiated THP-1 cells, LPS 24 hr then Nigericin 1 hour; read-out: IL-1β (IC50)

Structure (SMILES) | IC50
C=C(CC(=O)OC(C)c1cc(Cl)cc(Cl)c1)C(=O)OCC(=O)O (single isomer, unassigned; isomer 2) [Example 199, 2-((4-(1-(3,5-dichlorophenyl)ethoxy)-2-methylene-4-oxobutanoyl)oxy)acetic acid (Isomer 2)] | 18.3 µM
